Data reported in patent US10300029B2, “Organ protection solutions and method of use” (VIRGINIA COMMONWEALTH UNIVERSITY, priority 2011, dated 2019).

How the values were obtained:
shocked rodents = assay: Hemorrhagic shock model, low volume resuscitation with gluconate (Example 4); format: in vivo
Experimental: Gluconate was administered in the organ protectant solution (e.g., a low volume resuscitation (LVR) solution with cell impermeants according to the present invention) in order to achieve a theoretical gluconate concentration of about 60 mM in the extracellular fluid compartment (subsequent experiments have shown that about 100 mM is probably optimal). The idea of low volume resuscitation is to give the shocked patient small volumes of intravenous fluids to prolong the time on the field to allow for rescue and transport to a forward hospital where more definitive resuscitation can occur (due to fewer resource limitations). The purpose of the addition of the cell impermeants to the LVR solution (usually saline) was to increase this “down time” further, effectively increasing the tolerance to the low flow state and making it more likely that the patient can survive the wait to the hospital. Essentially, the objective is to increase the “Golden Hour”.
In shock experiments, the time that the control animals could remain in the low volume state (after LVR administration) was 64 minutes. […] This means that these subjects were able to stay safely in the low volume state for much longer periods. In practical terms, they can wait longer for transport and full resuscitation, yet presumably have a higher chance of survival.

rodent capillaries = system: rodent capillaries; set-up: species or system rats; details: rat, in vivo
Experimental: FIG. 10A-D. A) Diagram showing the shock, resuscitation, and recovery protocol used for these studies. The low volume resuscitation (LVR) time is the time from the start of the low volume resuscitation (after the lactate during hemorrhagic shock reaches 9-10 mM) until the time after the LVR infusion when the lactate rises back up to 9-10 mM again. This immediately precedes full resuscitation. The LVR time is a measure of the tolerance to the low volume state and is a function of the microcirculatory effectiveness since it is dependent on the rate of change of the plasma lactate. […] The numbers on the x-axis are the corresponding lactate concentrations in the plasma at the end of the LVR period. Most are close to 10 mM because that was the definition of the end of the LVR period. […] D) The oncotic reflection coefficient (σd) for PEG-20k was measured in six rats to determine the impermeant and the oncotic effects of this molecule in both the mesenteric vascular bed and the thoracic bed. FITC-labeled PEG-20k was used as a tracer molecule and the reflection coefficient was determined by measuring the lymph (L) to plasma (P) concentrations of FITC-PEG after an IV injection of the tracer under conditions of high lymph flow induced by volume loading with I.V. saline infusions (0.25 ml/min). […] FITC-labelled PEG-20k was measured by excitation-emission spectrofluorometry. […]

[1] = system: juvenile swine in hemorrhagic shock
Excerpt: Saline control • b. […] Results

[2] = 24 hours after shock and resuscitation, vs controls

Experimental for normal pig blood: The (A) PT-INR and (B) aPTT effects were determined in both normal pig blood after ex-vivo mixing with PEG-20k LVR solutions (10% dilution) or with a saline control, also at a 10% solution, and after the end of the LVR period in pigs given PEG-20k based LVR solutions.
Juvenile swine (35-40 kn) were anesthetized with Ketamine/Xylazine, and propofol induction followed by isofluorane inhalation anesthesia maintenance (1-2%). A swan-Ganz catheter was introduced into the pulmonary artery via a cut down of the right jugular vein for the continuous measurement of cardiac output, pulmonary artery pressures, and sVO2 (mixed venous O2 saturation) by an optical sensor on the PA catheter. Blood pressure and arterial blood gases were measured by a line in the femoral artery. A line in the carotid artery and contralateral jugular vein was used for bleeding and resuscitation, respectively. […]
Finally, coagulation was determined in both normal pig blood after ex-vivo mixing with PEG-20k LVR solutions (10% dilution) or with a saline control, also at a 10% solution, and after the end of the LVR period in pigs given PEG-20k based LVR solutions.

Row | Compound | albumin (shocked rodents; [2]) | liver enzymes (shocked rodents; [2]) | metabolic acidosis (shocked rodents; [2]) | LVR time (shocked rodents; gluconate added to LVR solution, theoretical about 60 mM in extracellular fluid) | capillary oncotic reflection coefficient (rodent capillaries) | coagulation (PT-INR, aPTT), in-vivo [1] | coagulation (PT-INR, aPTT), ex-vivo mixing test (normal pig blood)
1 | O=C(O)[C@H](O)[C@@H](O)[C@H](O)[C@H](O)CO [gluconate] | higher | lower | less | over 106 minutes | – | – | –
2 | polyethylene glycol 20,000 [PEG-20k] | – | – | – | – | about 0.65 | not altered | not altered
